One series relates to SF-268. The series can be described thus: Cytotoxicity assay (cell titer-glo and calcein AM), SF-268.
The test system of another series is SK-OV-3. In words: Cytotoxicity assay (cell titer-glo and calcein AM), SK-OV-3.
For another series, the system named is A549. The series can be described thus: Cytotoxicity assay (cell titer-glo and calcein AM), A549.
In the next series the test system is ADR-RES. The series can be described thus: Cytotoxicity assay (cell titer-glo and calcein AM), ADR-RES.
For another series, the system named is tubulin. The series can be described thus: In vitro tubulin polymerization assay (fluorescence-based). The class given is biochemical. The note with it: for effect on tubulin polymerization / microtubules: tested in duplicate on at least two days. Further details: key to tubulin polymeriz.: ‘D’ designates destabilizer; ‘S’ designates stabilizer. The procedure:
In vitro tubulin polymerization assays were performed using a fluorescence-based assay (Cytoskeleton, Inc., Denver, Colo.). […] Aliquots (5 μL) of each compound or control were added to a 96-well black half area plate (Corning Costar, Inc.) pre-warmed to 37° C. Cold tubulin reaction mix (50 μL 1× Buffer—80 mM piperazine-N,N′-bis[2-ethanesulfonic acid]sequisodium salt; 2.0 mM magnesium chloride; 0.5 mM ethylene glycol-bis[β-amino-ethyl ether) N,N,N′,N′-tetra-acetic acid, pH 6.9, 10 μM fluorescent reporter; 20% tubulin glycerol buffer—80 mM piperazine-N,N′-bis[2-ethanesulfonic acid] sequisodium salt; 2.0 mM magnesium chloride; 0.5 mM ethylene glycol-bis(β-amino-ethyl ether) N,N,N′,N′-tetra-acetic acid, 60% v/v glycerol, pH 6.9, 1 mM GTP; and 2 mg mL^−1 tubulin stock) was added to each of the compounds. […] Polymerization curves were generated in Excel after background correction and the effects of test compounds were compared to controls.
Library members that accelerated the rate of tubulin polymerization were deemed microtubule stabilizers, whereas compounds that decelerated the rate of tubulin polymerization were deemed microtubule de-stabilizers.

The next series relates to Du145. The series can be described thus: Cytotoxicity assay (cell titer-glo and calcein AM), Du145.
In another series the test system is MCF7. The series can be described thus: Cytotoxicity assay (cell titer-glo and calcein AM), MCF7.
The subject of series [1] is A549 cells. In words: Drug combination study with paclitaxel (Chou-Talalay combination index).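 As to all read-outs here: combination indexes averaged only over points where fraction affected exceeded 0.2, with each synergy experiment repeated at least three times.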 The following applies: for plus paclitaxel, mean CI / plus paclitaxel, median CI: combination index, paclitaxel held at IC10, A549 cells; for interaction with paclitaxel/taxol: drug combination, A549 cells, Chou-Talalay.
Experimental: (§1) Ten thousand A549 cells per well were plated in triplicate in 96 well black tissue culture treated plates. Cells were incubated for one hour at 37° C. to allow cells to attach.
(§2) All synergy experiment results were replicated at least three times and the overall effects analyzed by averaging all combination indexes generated if the fraction affected was greater than 0.2.
The next series relates to Hep3B. In words: Cytotoxicity assay (cell titer-glo and calcein AM), Hep3B.
Series [2] concerns nine human cancer cell lines and one normal mouse control cell line. The series can be described thus: Cytotoxicity screen across the whole cell line panel. The note with it: all cell lines other than SK-OV-3; range printed with mixed units nM-μM; read-out: potencies (IC50) in all other cell lines. The class given is cell-based.
In series [3] the test system is A549 cells. The series can be described thus: Drug combination study with colchicine (Chou-Talalay combination index). The following applies: for plus colchicine, mean CI / plus colchicine, median CI: combination index, colchicine held at IC10, A549 cells; for interaction with colchicine: drug combination, A549 cells, Chou-Talalay.
Experimental: as §1, §2
A further series relates to NCI-H460. In words: Cytotoxicity assay (cell titer-glo and calcein AM), NCI-H460.
Series [4] has as its system mouse mammary normal epithelial control cell line. In words: Cytotoxicity assay, normal control cell line.
The subject of the next series is HCT-116. The series can be described thus: Cytotoxicity assay (cell titer-glo and calcein AM), HCT-116.
The mark [5] stands for this setting: read-out: Cytotoxicity IC50, SF-268, CTG, SF-268, CTG (cell titer-glo) readout, % error in parentheses.
Where [6] appears, read: read-out: Cytotoxicity IC50, SF-268, calcein, SF-268, calcein AM readout, % error in parentheses.
[7] abbreviates: read-out: Cytotoxicity IC50, SK-OV-3, CTG, SK-OV-3, CTG (cell titer-glo) readout, % error in parentheses.
Setting [8] is: read-out: Cytotoxicity IC50, SK-OV-3, calcein, SK-OV-3, calcein AM readout, % error in parentheses.
Setting [9] is: read-out: Cytotoxicity IC50, A549, CTG, A549, CTG (cell titer-glo) readout, % error in parentheses.
The mark [10] stands for this setting: read-out: Cytotoxicity IC50, A549, calcein, A549, calcein AM readout, % error in parentheses.
Where [11] appears, read: read-out: Cytotoxicity IC50, NCI/ADR RES, CTG, NCI/ADR RES, CTG (cell titer-glo) readout, % error in parentheses.
[12] abbreviates: read-out: Cytotoxicity IC50, NCI/ADR RES, calcein, NCI/ADR RES, calcein AM readout, % error in parentheses.
Where [13] appears, read: read-out: Cytotoxicity IC50, Du145, CTG, Du145, CTG (cell titer-glo) readout, % error in parentheses.
The mark [14] stands for this setting: read-out: Cytotoxicity IC50, Du145, calcein, Du145, calcein AM readout, % error in parentheses.
Setting [15] is: read-out: Cytotoxicity IC50, MCF7, CTG, CTG (cell titer-glo) readout, % error in parentheses.
Setting [16] is: read-out: Cytotoxicity IC50, MCF7, calcein, calcein AM readout, % error in parentheses.
Where [17] appears, read: read-out: Cytotoxicity IC50, Hep 3B, CTG, Hep 3B, CTG (cell titer-glo) readout, % error in parentheses.
Setting [18] is: read-out: Cytotoxicity IC50, Hep 3B, calcein, Hep 3B, calcein AM readout, % error in parentheses.
[19] abbreviates: read-out: Cytotoxicity IC50, NCI-H460, CTG, NCI-H460, CTG (cell titer-glo) readout, % error in parentheses.
[20] abbreviates: read-out: Cytotoxicity IC50, NCI-H460, calcein, NCI-H460, calcein AM readout, % error in parentheses.
The mark [21] stands for this setting: read-out: Cytotoxicity IC50, NmuMG, CTG, CTG (cell titer-glo) readout, % error in parentheses.
Setting [22] is: read-out: Cytotoxicity IC50, NmuMG, calcein, calcein AM readout, % error in parentheses.
Setting [23] is: Homo sapiens, SF-268, read-out: Cytotoxicity IC50, SF-268, calcein.
The mark [24] stands for this setting: Homo sapiens, SK-OV-3, read-out: Cytotoxicity IC50, SK-OV-3, CTG.
The mark [25] stands for this setting: Homo sapiens, SK-OV-3, read-out: Cytotoxicity IC50, SK-OV-3, calcein.
Setting [26] is: Homo sapiens, NCI/ADR-RES, read-out: Cytotoxicity IC50, NCI/ADR RES, calcein.
Setting [27] is: Homo sapiens, DU-145, read-out: Cytotoxicity IC50, Du145, CTG.
Setting [28] is: Homo sapiens, DU-145, read-out: Cytotoxicity IC50, Du145, calcein.
Setting [29] is: Homo sapiens, Hep3B, read-out: Cytotoxicity IC50, Hep 3B, calcein.
Setting [30] is: Homo sapiens, HCT-116, read-out: Cytotoxicity IC50, HCT-116, CTG.
[31] abbreviates: Homo sapiens, HCT-116, read-out: Cytotoxicity IC50, HCT-116, calcein.

Entries after “also recorded” stand apart in the source; their conditions may differ. Like-named read-outs stand apart in the source and are kept apart here.

Turning to 2-deoxy-D-galactoside [Col6], the IC50 was 632 nM in the series on SF-268 (setting [5]); 691 nM in the series on SF-268 (setting [6]); 388 nM in the series on SK-OV-3 (setting [7]); 381 nM with SK-OV-3 (setting [8]); 381 nM with SK-OV-3 (read-out: IC50 in SK-OV-3 cells); 782 nM with A549 (setting [9]). The IC50 with A549 (setting [10]) is 942 nM; in the series on ADR-RES (setting [11]) it was 877 nM; with ADR-RES (setting [12]), 887 nM; with Du145 (setting [13]) it was 892 nM; in the series on Du145 (setting [14]), 958 nM; in the series with MCF7 (setting [15]) it was 665 nM. For the same compound, the IC50 is 2220 nM in the series on MCF7 (setting [16]); 817 nM in the series with Hep3B (setting [17]); 1120 nM with Hep3B (setting [18]); 691 to 1120 nM in series [2]; 745 nM in the series on NCI-H460 (setting [19]); 948 nM in the series with NCI-H460 (setting [20]). Further, the IC50 in series [4] (setting [21]) was 3260 nM; in series [4] (setting [22]), 4170 nM. For the same compound, in the series with tubulin, the tubulin polymeriz. result is given as “D”. For the same compound, the “effect on tubulin polymerization / microtubules” value in the series with tubulin is recorded as “destabilizing; also recorded: destabilized microtubules”. Moreover, the “synergy (paclitaxel)” value in the series with A549 cells [1] (combination index class, combination with paclitaxel, Chou-Talalay method) is “+ (slight synergism, Cl 0.85-0.9)”. Also, the “plus paclitaxel, mean CI” value in the series on A549 cells [1] is listed as 0.88. Moreover, the “plus paclitaxel, median CI” value with A549 cells [1] is 0.52. Further, the “interaction with paclitaxel/taxol” value in the series on A549 cells [1] is “synergy”. Moreover, in the series on A549 cells [3], the “plus colchicine, mean CI” value is 1.30. For the same compound, the “plus colchicine, median CI” value with A549 cells [3] was found to be 1.19. The “interaction with colchicine” value in the series with A549 cells [3] is “antagonism”.

Regarding `CONCC(=O)N[C@H]1CCc2cc(OC)c(OC)c(OC)c2-c2ccc(OC)c(=O)cc21` [Col 8, 19-N-methoxyamino-colchicine], the IC50 with SF-268 (Homo sapiens, SF-268, read-out: Cytotoxicity IC50, SF-268, CTG) was 116 nM; with SF-268 (setting [23]), 191 nM; in the series with SK-OV-3 (setting [24]) it was 455 nM; in the series on SK-OV-3 (setting [25]) it was 316 nM; in the series with ADR-RES (Homo sapiens, NCI/ADR-RES, read-out: Cytotoxicity IC50, NCI/ADR RES, CTG), 79 nM; in the series with ADR-RES (setting [26]) it was 65 nM. Further, the IC50 was 64 nM with Du145 (setting [27]); 84 nM in the series with Du145 (setting [28]); 141 nM with Hep3B (Homo sapiens, Hep3B, read-out: Cytotoxicity IC50, Hep 3B, CTG); 284 nM in the series with Hep3B (setting [29]); 116 nM in the series with HCT-116 (setting [30]); 98 nM in the series with HCT-116 (setting [31]). The “plus paclitaxel, mean CI” value in the series with A549 cells [1] is listed as 0.90. Besides, the “plus paclitaxel, median CI” value in the series on A549 cells [1] stood at 0.57. For the same compound, in the series with A549 cells [1], the “interaction with paclitaxel/taxol” value is reported as “synergy”. The “plus colchicine, mean CI” value in the series with A549 cells [3] is 2.98. Moreover, the “plus colchicine, median CI” value with A549 cells [3] is reported as 1.47. Also, the “interaction with colchicine” value in the series with A549 cells [3] is “antagonism”.

For the compound `COc1cc2c(c(OC)c1OC)-c1ccc(OC)c(=O)cc1C(NC(=O)CN(OC)C1CC(O)C(O)C(C)O1)CC2` [Col65, D-Digitoxoside], the IC50 in the series with SF-268 (setting [5]) is 800 nM; in the series on SF-268 (setting [6]) it was 665 nM; in the series with SK-OV-3 (setting [7]), 634 nM; with SK-OV-3 (setting [8]), 1030 nM; in the series on A549 (setting [9]), 1490 nM; in the series on A549 (setting [10]), 2300 nM. For the same compound, the IC50 is 893 nM with ADR-RES (setting [11]); 694 nM in the series on ADR-RES (setting [12]); 850 nM with Du145 (setting [13]); 939 nM in the series on Du145 (setting [14]); 946 nM in the series on MCF7 (setting [15]); 648 nM in the series with MCF7 (setting [16]). For the same compound, the IC50 in the series on Hep3B (setting [17]) was 1700 nM; with Hep3B (setting [18]), 1880 nM; with NCI-H460 (setting [19]), 862 nM; in the series on NCI-H460 (setting [20]) it was 744 nM; in the series with HCT-116 (read-out: Cytotoxicity IC50, HCT-116, CTG, HCT-116, CTG (cell titer-glo) readout, % error in parentheses), 918 nM; in the series on HCT-116 (read-out: Cytotoxicity IC50, HCT-116, calcein, HCT-116, calcein AM readout, % error in parentheses), 897 nM. Also, the IC50 in series [4] (setting [21]) was 7750 nM; in series [4] (setting [22]), 3320 nM. Besides, the tubulin polymeriz. entry with tubulin is given as “no effect”. Moreover, in the series with tubulin, the “effect on tubulin polymerization / microtubules” value is listed as “no apparent effect”.

On to `CC(=O)O[C@H]1C(=O)[C@@]2(C)[C@H]([C@H](OC(=O)c3ccccc3)[C@]3(O)C[C@H](OC(=O)[C@H](O)[C@@H](NC(=O)c4ccccc4)c4ccccc4)C(C)=C1C3(C)C)[C@]1(OC(C)=O)CO[C@@H]1C[C@@H]2O` [paclitaxel, reference compound], for which the IC50 in the series on SF-268 (setting [23]) was 315 nM; with SF-268 (Homo sapiens, SF-268, read-out: IC50 (SF-268)) it was 315 nM; in the series with SK-OV-3 (setting [24]) it was 42 nM; in the series with SK-OV-3 (setting [25]), 34 nM; in the series on SK-OV-3 (Homo sapiens, SK-OV-3, read-out: IC50 (SK-OV-3)), 34 nM; in the series on A549 (Homo sapiens, A549, read-out: IC50 (A549)), 75 nM. Also, the IC50 in the series with ADR-RES (setting [26]) was 43 nM; with ADR-RES (Homo sapiens, read-out: IC50 (ADR-RES)) it was 43 nM; in the series on Du145 (setting [27]) it was 432 nM; with Du145 (setting [28]), 290 nM; in the series with Du145 (Homo sapiens, DU-145, read-out: IC50 (Du145)), 290 nM; in the series on Hep3B (setting [29]) it was 166 nM. The IC50 in the series on Hep3B (Homo sapiens, Hep3B, read-out: IC50 (Hep3B)) is 166 nM; with NCI-H460 (Homo sapiens, NCI-H460, read-out: IC50 (NCI-H460)), 105 nM; in the series on HCT-116 (setting [30]), 168 nM; in the series on HCT-116 (setting [31]) it was 275 nM; with HCT-116 (Homo sapiens, HCT-116, read-out: IC50 (HCT-116)), 275 nM. Moreover, in the series with tubulin, the tubulin polymeriz. result is recorded as “S”. The “effect on tubulin polymerization / microtubules” value with tubulin is “stabilizing; also recorded: stabilized the microtubules”.

The values above are taken from patent US20130012466A1 (priority 2006, published 2013).
